These results are taken from ChEMBL document CHEMBL1158214, “Rollinecins A and B: two new bioactive annonaceous acetogenins from Rollinia mucosa” (J Nat Prod, 1996).

Converted amounts (≈) assume the structure as drawn.

The test system of one data set is HT-29. Kind of data set: Cytotoxicity against human HT29 cells. As to conditions: read-out: ED50 (the source's name). In kind it is functional.
For the next data set, the system named is A549. Description: Cytotoxicity against human A549 cells. In kind it is functional.
A further data set deals with MCF7. Description: Cytotoxicity against human MCF7 cells. In kind it is functional. Conditions: read-out: ED50 (the source's name).
Another data set concerns A498. Kind of data set: Cytotoxicity against human A498 cells. In kind it is functional.
The next data set concerns PC-3. Description: Cytotoxicity against human PC3 cells. In kind it is functional.
The test system of another data set is MIA PaCa-2. Kind of data set: Cytotoxicity against human MIAPaCa2 cells. In kind it is functional.
The nature of data set [1]: Toxicity in brine shrimp. Conditions: artemia, in vivo. In kind it is organism-based.

With `COc1cccc2c1C(=O)c1c(O)c3c(c(O)c1C2=O)C[C@@](O)(C(=O)CO)C[C@@H]3O[C@H]1C[C@H](N)[C@H](O)[C@H](C)O1` [DOXORUBICIN], the EC50 in the data set with HT-29 was 0.0193 µg/mL (≈ 0.0355 µM); in the data set on A549 (Homo sapiens, A549, read-out: ED50 (the source's name)) it was 0.00157 µg/mL (≈ 0.00289 µM); in the data set on MCF7, 0.0968 µg/mL (≈ 0.178 µM); with A498 (Homo sapiens, A498, read-out: ED50 (the source's name)) it was 0.0019 µg/mL (≈ 0.0035 µM); in the data set on PC-3 (Homo sapiens, PC-3, read-out: ED50 (the source's name)), 0.0281 µg/mL (≈ 0.0517 µM); in the data set with MIA PaCa-2 (Homo sapiens, MIA PaCa-2, read-out: ED50 (the source's name)) it was 0.0224 µg/mL (≈ 0.0412 µM).
For `CCCCCCCCCCCC[C@H](O)[C@H]1CC[C@H]([C@H](O)CC[C@@H](O)CCCCCCCCC[C@@H](O)CC2=C[C@H](C)OC2=O)O1` [ROLLINECIN B], the EC50 in the data set with HT-29 was found to be 1.44 µg/mL (≈ 2.3 µM); in the data set on MCF7, 2.72 µg/mL (≈ 4.35 µM). Besides, the LC50 – broadly, the concentration that kills 50% of the test population – in data set [1] was found to be 0.13 µg/mL (≈ 0.208 µM). Moreover, the ED50 with A549 was found to be 4.23 ×10⁻⁴ ug/ml; in the data set with A498, 2.29 ×10⁻⁴ ug/ml; in the data set on PC-3, 3.62 ×10⁻⁴ ug/ml; in the data set on MIA PaCa-2, 2.53 ×10⁻⁴ ug/ml.
`CCCCCCCCCCCC[C@H](O)[C@H]1CC[C@H]([C@H](O)CC[C@H](O)CCCCCCCCC[C@@H](O)CC2=C[C@H](C)OC2=O)O1` [ROLLINECIN A]: the EC50 in the data set on HT-29 was determined as 1.6 µg/mL (≈ 2.56 µM); in the data set with MCF7 it was 1.44 µg/mL (≈ 2.3 µM). In data set [1], the LC50 was 0.31 µg/mL (≈ 0.496 µM). Further, the ED50 in the data set on A549 is 1.14 ×10⁻⁴ ug/ml; with A498 it was 7.25 ×10⁻⁴ ug/ml; in the data set with PC-3, 2.62 ×10⁻⁴ ug/ml; in the data set with MIA PaCa-2, 3.47 ×10⁻⁵ ug/ml.
